Test results published in patent US20230373972A1, “PIPERAZINE DERIVATIVE, PREPARATION METHOD THEREFOR AND USE THEREOF” (Zhejiang Hisun Pharmaceutical Co., Ltd., priority 2020, published 2023).

Assays:
[1] = molecular target: T1, Native human Factor XIa protease (Homo sapiens, UniProt P03951); assay: Inhibition of activity of Factor XIa protease (chromogenic substrate S-2366); type: biochemical; details: S-2366 1 mM, 37° C. 10 minutes, absorption at 405 nm
T1 construct: The Native human Factor XIa protease was purchased from Abcam; purchased Abcam ab62411
Excerpt: The following method was used to determine an inhibition degree of the compound of the present invention on an activity of Native human Factor XIa protease in vitro. In the method, a Factor XIa chromogenic substrate was used to test the inhibition degree on the activity of the Factor XIa protease. The Native human Factor XIa protease was purchased from Abcam (article number ab62411), and S-2366 was purchased from Chromogenix (article number 82109039). An experimental process was briefly described as follows: a test compound was dissolved in DMSO to prepare a 10 mM storage solution first, then the compound was diluted with a Factor XIa reaction buffer (100 mM Tris-HCl, 200 mM NaCl, 0.02% Tween 20, pH 7.4) by a quadruple gradient, and a final concentration of the test compound in a reaction system ranged from 10,000 nM to […]. The reaction was carried out in a 384-well microplate. 2 μL of the test compounds at different concentrations diluted with the reaction buffer were added to wells first, and 2 μL of 1% DMSO (a final concentration of DMSO in the reaction system was 0.1%) was used to replace blank and control wells. Subsequently, 8 μL of enzyme working solution (a final concentration of Factor XIa was […]) was added to each well, and 8 μL of Factor XIa reaction buffer was used to replace the blank well, centrifuged for 30 seconds, and incubated on ice for 5 minutes. Finally, 10 μL of substrate working solution (a final concentration of S-2366 was 1 mM) was added to each well, and centrifuged for 30 seconds, and the reaction was started. The solution was incubated at 37° C. for 10 minutes to determine a light absorption value at 405 nm. By comparing with a light absorption value of the control group (0.1% DMSO), a percentage inhibition rate of the compound at each concentration was calculated, and nonlinear regression analysis was carried out on value-inhibition rate with the concentration of the compound by GraphPad Prism 5 software, so as to obtain an IC50 value of the compound, as shown in Table 1.

human plasma = assay: In-vitro anticoagulation on human plasma (APTT kit, coagulation time); details: concentration of the compound when the coagulation time (APTT) was prolonged twice
Method: The following method was used to determine the in-vitro anticoagulation of the compound of the present invention in the human plasma. In the method, an APTT kit of the MediRox company was used to test. The APTT kit was purchased from MediRox (article number MRX930), and the human plasma was prepared internally.
The preparation of the human plasma was briefly described as follows: human plasma was collected in a blood collection tube containing sodium citrate, and centrifuged at 3,000 rpm for 10 minutes at room temperature, and plasma was collected, and packaged separately and stored at −80° C.
An APTT test process was briefly described as follows: a test compound was dissolved in DMSO to prepare a 10 mM storage solution first, then the test compound was diluted with DMSO by a triple gradient, and a final concentration of the test compound in a reaction system ranged from 217 μM to 0.03 μM. 4 μL, of test compounds at different concentrations diluted with DMSO were added to a centrifuge tube containing 180 μL of plasma, and 4 μL of DMSO was added to a blank group, shaken and mixed evenly, and incubated at 37° C. for 5 minutes. Subsequently, an APTT reagent was placed in a reagent holder according to instrument requirements, the incubated plasma sample was placed in a detection position of a coagulation analyzer, and a coagulation time was determined and recorded (s). With a final concentration of the compound as an abscissa and Ratio (Ratio=TiT0, wherein T0 was a coagulation time of a blank control, and Ti was a coagulation time of a compound to be tested) as an ordinate, a coagulation dose-effect curve was drawn by Graph Pad Prisms, and a concentration of the compound when the coagulation time was prolonged twice was calculated, which was namely a CT2 value, as shown in Table 2.

T1 sequence (P03951 388-625 limits assumed): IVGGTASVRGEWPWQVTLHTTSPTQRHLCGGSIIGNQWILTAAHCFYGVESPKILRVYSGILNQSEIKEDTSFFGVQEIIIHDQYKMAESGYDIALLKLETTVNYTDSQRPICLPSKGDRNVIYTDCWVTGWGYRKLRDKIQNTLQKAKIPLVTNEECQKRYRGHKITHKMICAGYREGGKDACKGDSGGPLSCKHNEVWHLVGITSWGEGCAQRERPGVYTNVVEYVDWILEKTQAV
T1 sequence (P03951 19-387 partner limits assumed): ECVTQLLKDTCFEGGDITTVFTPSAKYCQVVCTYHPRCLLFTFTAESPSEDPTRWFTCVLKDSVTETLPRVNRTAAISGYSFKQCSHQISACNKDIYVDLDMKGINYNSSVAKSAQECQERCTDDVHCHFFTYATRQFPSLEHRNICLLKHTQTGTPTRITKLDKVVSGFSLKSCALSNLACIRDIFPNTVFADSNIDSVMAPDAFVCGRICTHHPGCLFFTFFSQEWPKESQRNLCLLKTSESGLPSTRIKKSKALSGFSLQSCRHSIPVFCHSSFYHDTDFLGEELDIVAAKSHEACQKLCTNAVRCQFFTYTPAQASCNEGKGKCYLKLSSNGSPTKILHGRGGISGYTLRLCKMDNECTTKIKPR

Row | Compound | IC50 [1] | CT2 (human plasma)
1 | [2H]C([2H])([2H])n1cc2cc(NC(=O)C(Cc3ccccc3)N3CC(=O)N(c4cc(Cl)ccc4-n4cc(Cl)nn4)CC3=O)ccc2n1 (stereo not shown) [Example 109, 2-(4-(5-Chloro-2-(4-chloro-1H-1,2,3-triazol-1-yl)phenyl)-2,5-dioxopiperazin-1-yl)-N-(2-(methyl-d3)-2H-indazol-5-yl)-3-phenylpropanamide] | 12.7 nM | 12.6 µM
2 | COc1ccc(CC(C(=O)Nc2ccc3nn(C)cc3c2)N2CC(=O)N(c3cc(Cl)ccc3-n3cc(Cl)nn3)CC2=O)cc1 (stereo not shown) [Example 108, 2-(4-(5-chloro-2-(4-chloro-1H-1,2,3-triazol-1-yl)phenyl)-2,5-dioxopiperazin-1-yl)-3-(4-methoxyphenyl)-N-(2-methyl-2H-indazol-5-yl)propanamide] | 35.8 nM | 10.6 µM
3 | NC(=O)c1ccc(NC(=O)C(Cc2ccccc2)N2CC(=O)N(c3cc(Cl)ccc3-n3cnnn3)CC2=O)cc1 (stereo not shown) [Example 3, 4-(2-(4-(5-Chloro-2-(1H-tetrazol-1-yl)phenyl)-2,5-dioxopiperazin-1-yl)-3-phenylpropanamido)benzamide] | 36.7 nM | 6.6 µM
4 | O=C(O)c1ccc(NC(=O)C(Cc2ccccc2)N2CC(=O)N(c3cc(Cl)ccc3-n3ccnn3)CC2=O)cc1 (stereo not shown) [Example 11, 4-(2-(4-(5-Chloro-2-(1H-1,2,3-triazole-1-yl)phenyl)-2,5-dioxopiperazin-1-yl)-3-phenylpropanamido)benzoic Acid] | 24.9 nM | 8.1 µM
5 | CNC(=O)c1ccc(NC(=O)C(Cc2ccccc2)N2CC(=O)N(c3cc(Cl)ccc3-n3cnnn3)CC2=O)cc1 (stereo not shown) [Example 6, 4-(2-(4-(5-Chloro-2-(1H-tetrazol-1-yl)phenyl)-2,5-dioxopiperazin-1-yl)-3-phenylpropanamido)-N-methylbenzamide] | 34.6 nM | 4.9 µM
6 | Cn1cc2cc(NC(=O)C(Cc3ccccc3)N3CC(=O)N(c4cc(Cl)ccc4-n4cnnn4)CC3=O)ccc2n1 (stereo not shown) [Example 19, 2-(4-(5-Chloro-2-(1H-tetrazol-1-yl)phenyl)-2,5-dioxopiperazin-1-yl)-N-(2-methyl-2H-indazol-5-yl)-3-phenylpropanamide] | 8.5 nM | 3.0 µM
7 | O=C(Nc1ccc2nccnc2c1)C(Cc1ccccc1)N1CC(=O)N(c2cc(Cl)ccc2-n2cc(Cl)nn2)CC1=O (stereo not shown) [Example 24, 2-(4-(5-Chloro-2-(4-chloro-1H-1,2,3-triazol-1-yl)phenyl)-2,5-dioxopiperazin-1-yl)-3-phenyl-N-(quinoxalin-6-yl)propanamide] | 23.2 nM | –
8 | O=C(Nc1cccc(F)c1)C(Cc1ccccc1)N1CC(=O)N(c2cc(Cl)ccc2-n2cnnn2)CC1=O (stereo not shown) [Example 15, 2-(4-(5-Chloro-2-(1H-tetrazol-1-yl)phenyl)-2,5-dioxopiperazine-1-yl)-N-(3-fluorophenyl)-3-phenylpropanamide] | 25.1 nM | 9.9 µM
9 | CNC(=O)c1ccc(NC(=O)C(Cc2ccccc2)N2CC(=O)N(c3cc(Cl)ccc3-n3cnnn3)CC2=O)cc1F (stereo not shown) [Example 20, 4-(2-(4-(5-Chloro-2-(1H-tetrazol-1-yl)phenyl)-2,5-dioxopiperazin-1-yl)-3-phenylpropanamido)-2-fluoro-N-methylbenzamide] | 30.5 nM | 8.6 µM
10 | O=C(Nc1ccc2nccnc2c1)C(Cc1ccccc1)N1CC(=O)N(c2cc(Cl)ccc2-n2cnnn2)CC1=O (stereo not shown) [Example 18, 2-(4-(5-Chloro-2-(1H-tetrazol-1-yl)phenyl)-2,5-dioxopiperazin-1-yl)-3-phenyl-N-(quinoxalin-6-yl)propanamide] | 20.5 nM | 7.9 µM
11 | O=C1NCc2cc(NC(=O)C(Cc3ccccc3)N3CC(=O)N(c4cc(Cl)ccc4-n4cnnn4)CC3=O)ccc21 (stereo not shown) [Example 7, 2-(4-(5-Chloro-2-(1H-tetrazol-1-yl)phenyl)-2,5-dioxopiperazine-1-yl)-N-(1-oxoisoindolin-5-yl)-3-phenylpropanamide] | 15.5 nM | 9.8 µM
12 | NC(=O)c1ccc(NC(=O)[C@H](Cc2ccccc2)N2CC(=O)N(c3cc(Cl)ccc3-n3cc(Cl)nn3)CC2=O)cc1F [Example 137, (S)-4-(2-(4-(5-chloro-2-(4-chloro-1H-1,2,3-triazol-1-yl)phenyl)-2,5-dioxopiperazin-1-yl)-3-phenylpropanamido)-2-fluorobenzamide] | 27.3 nM | –
13 | Cn1cc2cc(NC(=O)C(Cc3ccc(C#N)cc3)N3CC(=O)N(c4cc(Cl)ccc4-n4cc(Cl)nn4)CC3=O)ccc2n1 (stereo not shown) [Example 115, 2-(4-(5-chloro-2-(4-chloro-1H-1,2,3-triazol-1-yl)phenyl)-2,5-dioxopiperazin-1-yl)-3-(4-cyanophenyl)-N-(2-methyl-2H-indazol-5-yl)propanamide] | 46.7 nM | 11.7 µM
14 | O=C(Nc1ccc2nn(C(F)F)cc2c1)C(Cc1ccccc1)N1CC(=O)N(c2cc(Cl)ccc2-n2cnnn2)CC1=O (stereo not shown) [Example 34, 2-(4-(5-Chloro-2-(1H-tetrazol-1-yl)phenyl)-2,5-dioxopiperazin-1-yl)-N-(2-(difluoromethyl)-2H-indazol-5-yl)-3-phenylpropanamide] | 10.4 nM | 5.9 µM
15 | Cn1ccc(C[C@@H](C(=O)Nc2ccc3nn(C)cc3c2)N2CC(=O)N(c3cc(Cl)ccc3-n3cc(Cl)nn3)CC2=O)n1 [Example 112, (S)-2-(4-(5-chloro-2-(4-chloro-1H-1,2,3-triazole-1-yl)phenyl)-2,5-dioxopiperazin-1-yl)-3-(1-methyl-1H-pyrazole-3-yl)-N-(2-methyl-2H-indazol-5-yl)propionamide] | 25.6 nM | 5.6 µM
16 | Cn1cc2ccc(NC(=O)C(Cc3ccccc3)N3CC(=O)N(c4cc(Cl)ccc4-n4cnnn4)CC3=O)cc2n1 (stereo not shown) [Example 31, 2-(4-(5-Chloro-2-(1H-tetrazol-1-yl)phenyl)-2,5-dioxopiperazin-1-yl)-N-(2-methyl-2H-indazol-6-yl)-3-phenylpropanamide] | 38.9 nM | 13.7 µM
17 | Cn1cc2cc(NC(=O)C(Cc3ccccc3)N3CC(=O)N(c4cc(Cl)ccc4-n4cc(C(F)(F)F)nn4)CC3=O)ccc2n1 (stereo not shown) [Example 121, 2-(4-(5-Chloro-2-(4-(trifluoromethyl)-1H-1,2,3-triazol-1-yl)phenyl)-2,5-dioxopiperazin-1-yl)-N-(2-methyl-2H-indazol-5-yl)-3-phenylpropanamide] | 32.7 nM | 16.1 µM
18 | O=C(Nc1ccc2nn(C(F)F)cc2c1)[C@H](Cc1ccccc1)N1CC(=O)N(c2cc(Cl)ccc2-n2cc(Cl)nn2)CC1=O [Example 97, (S)-2-(4-(5-chloro-2-(4-chloro-1H-1,2,3-triazol-1-yl)phenyl)-2,5-dioxopiperazin-1-yl)-N-(2-(difluoromethyl)-2H-indazol-5-yl)-3-phenylpropanamide] | 21.2 nM | 12.5 µM
19 | COC(=O)Nc1ccc(NC(=O)C(Cc2ccccc2)N2CC(=O)N(c3cc(Cl)ccc3-n3cnnn3)CC2=O)cc1 (stereo not shown) [Example 2, Methyl (4-(2-(4-(5-chloro-2-(1H-tetrazol-1-yl)phenyl)-2,5-dioxopiperazin-1-yl)-3-phenylpropanamido)phenyl)carbamate] | 44.9 nM | 12.6 µM
20 | COc1nccc2cc(NC(=O)C(Cc3ccccc3)N3CC(=O)N(c4cc(Cl)ccc4-n4cnnn4)CC3=O)ccc12 (stereo not shown) [Example 23, 2-(4-(5-Chloro-2-(1H-tetrazol-1-yl)phenyl)-2,5-dioxopiperazin-1-yl)-N-(1-methoxyisoquinolin-6-yl)-3-phenylpropanamide] | 43.2 nM | –
